{
  "source": "patent US20220323626A1",
  "about": "“Compositions, Kits, Methods and Uses for Preventing Microbial Growth” (Collidion, Inc., priority 2019, published 2022)",
  "test_system": "Staphylococcus aureus (ATCC 29213)",
  "test": "Microbiostatic assay: antimicrobial effectiveness test according to USP-51, viable colony counts over 28 days",
  "type": "cell-based",
  "settings": "inferred from the initial assays (7-log reduction at 0.5 ppm and above)",
  "method": "To prepare stock cultures of pathogenic bacteria, 10 mL nutrient broth was inoculated using a stock culture of Staphylococcus aureus (ATCC 29213) and incubated on an orbital shaker for 24±2 hours at approximately 150 rpm at 36±1° C. This culture was used to inoculate Tryptic Soy Agar (TSA) plates. Each plate was inoculated with the culture. Each plate was incubated for up to 48 hours at 30° C. to 35° C. Following incubation, suspensions were prepared by adding growth from TSA plates into a tube containing sterile water. Each tube was then vortexed and an aliquot was serially diluted and plated onto TSA plate for further numeration. The final numeration count uses aliquot volume, count obtained on TSA plate and the total original volume of culture. […]\nEach composition was tested over a seven log dilution series of pathogen bacteria assays by preparing samples containing 200 μL of a pathogenic bacteria suspension, 20 μL of an organic load, and 20,000 μL of a composition disclosed herein. […] The presence of viable bacteria was then measured by counting the number of colonies observed on the agar medium for each assay sample. Log reduction is determined by taking the log10 of the number calculated by taking the number of viable pathogenic bacteria colonies present in the assay sample without serum divided by the number of viable pathogenic bacteria colonies present in the assay sample with serum. […]",
  "data": [
    {"substance": "hypochlorous acid", "values": [
      {"measurement": "minimum microbiocidal concentration of hypochlorous acid or free available chlorine in the disclosed compositions", "result": "approximately 0.5 ppm"}
    ]}
  ]
}
